Data from patent publication US20220226321A1, “INHIBITOR OF MNK FOR THE TREATMENT OF NEUROPATHIC PAIN” (Board of Regents, The University of Texas System, priority 2019, published 2022).
Like-named read-outs stand apart in the source and are kept apart here.

Tested on: Nav1.8-positive nociceptors
Format: in vivo, mouse
[1] = input transcriptome of whole DRG, day 10

CC(=O)O[C@H]1C(=O)[C@@]2(C)[C@H]([C@H](OC(=O)c3ccccc3)[C@]3(O)C[C@H](OC(=O)[C@H](O)[C@@H](NC(=O)c4ccccc4)c4ccccc4)C(C)=C1C3(C)C)[C@]1(OC(C)=O)CO[C@@H]1C[C@@H]2O [paclitaxel]
Log2FC Mxd3 (Nav1.8-TRAP after paclitaxel): 1.905 | Log2FC Ndufa4 (Nav1.8-TRAP after paclitaxel): 2.041 | Log2FC Ndufa8 (Nav1.8-TRAP after paclitaxel): 1.699 | Log2FC Ndufaf7 (Nav1.8-TRAP after paclitaxel): 2.358 | Log2FC Ndufs8 (Nav1.8-TRAP after paclitaxel): 2.837 | Log2FC Nedd9 (Nav1.8-TRAP after paclitaxel): 3.023 | Log2FC Ngfr (Nav1.8-TRAP after paclitaxel): 1.805 | Log2FC Nipsna p3b (Nav1.8-TRAP after paclitaxel): 2.057 | Log2FC Nme2 (Nav1.8-TRAP after paclitaxel): 3.66 | Log2FC Ntrk1 (Nav1.8-TRAP after paclitaxel): 2.2 | Log2FC Omg (Nav1.8-TRAP after paclitaxel): 2.194 | Log2FC PIpp1 (Nav1.8-TRAP after paclitaxel): 2.874 | Log2FC Pafah2 (Nav1.8-TRAP after paclitaxel): 2.283 | Log2FC Pcbd2 (Nav1.8-TRAP after paclitaxel): 2.687 | Log2FC Pcdhb9 (Nav1.8-TRAP after paclitaxel): 2.519 | Log2FC Pex11b (Nav1.8-TRAP after paclitaxel): 3.628 | Log2FC Pgrmc2 (Nav1.8-TRAP after paclitaxel): 1.76 | Log2FC Phpt1 (Nav1.8-TRAP after paclitaxel): 1.814 | Log2FC Pnrc2 (Nav1.8-TRAP after paclitaxel): 1.668 | Log2FC Polr1c (Nav1.8-TRAP after paclitaxel): 2.731 | Log2FC Polr2j (Nav1.8-TRAP after paclitaxel): 3.518 | Log2FC Ppdpf (Nav1.8-TRAP after paclitaxel): 2.038 | Log2FC Ppp1ca (Nav1.8-TRAP after paclitaxel): 2.094 | Log2FC Praf2 (Nav1.8-TRAP after paclitaxel): 2.335 | Log2FC Prdx5 (Nav1.8-TRAP after paclitaxel): 2.174 | Log2FC Prg4 (Nav1.8-TRAP after paclitaxel): 3.247 | Log2FC Prkrir (Nav1.8-TRAP after paclitaxel): 2.096 | Log2FC Prkx (Nav1.8-TRAP after paclitaxel): 2.201 | Log2FC Prm1 (Nav1.8-TRAP after paclitaxel): 1.732 | Log2FC Psma2 (Nav1.8-TRAP after paclitaxel): 2.07 | Log2FC Ptdss1 (Nav1.8-TRAP after paclitaxel): 1.681 | Log2FC Ptp4a3 (Nav1.8-TRAP after paclitaxel): 2.248 | Log2FC Ptprf (Nav1.8-TRAP after paclitaxel): 1.742 | Log2FC Pxdc1 (Nav1.8-TRAP after paclitaxel): 3.578 | Log2FC Rad9a (Nav1.8-TRAP after paclitaxel): 1.786 | Log2FC Rbc1 (Nav1.8-TRAP after paclitaxel): 1.841 | Log2FC Rcn3 (Nav1.8-TRAP after paclitaxel): 2.085 | Log2FC Rd54l (Nav1.8-TRAP after paclitaxel): 4.965 | Log2FC Rft1 (Nav1.8-TRAP after paclitaxel): 3.183 | Log2FC Rho (Nav1.8-TRAP after paclitaxel): 5.352 | Log2FC Rnase4 (Nav1.8-TRAP after paclitaxel): 2.356 | Log2FC Rnh1 (Nav1.8-TRAP after paclitaxel): 2.827 | Log2FC Romo1 (Nav1.8-TRAP after paclitaxel): 2.002 | Log2FC Rpl10a (Nav1.8-TRAP after paclitaxel): 2.764 | Log2FC Rpl23a (Nav1.8-TRAP after paclitaxel): 1.728 | Log2FC Rpl37 (Nav1.8-TRAP after paclitaxel): 2.314 | Log2FC Rpl39 (Nav1.8-TRAP after paclitaxel): 2.279 | Log2FC Rprm (Nav1.8-TRAP after paclitaxel): 1.703 | Log2FC Rps2 (Nav1.8-TRAP after paclitaxel): 2.442 | Log2FC Rps29 (Nav1.8-TRAP after paclitaxel): 2.994 | Log2FC Rraga (Nav1.8-TRAP after paclitaxel): 1.845 | Log2FC Rtn4rl1 (Nav1.8-TRAP after paclitaxel): 2.407 | Log2FC Rwdd1 (Nav1.8-TRAP after paclitaxel): 2.511 | Log2FC Sag (Nav1.8-TRAP after paclitaxel): 1.948 | Log2FC Scpep1 (Nav1.8-TRAP after paclitaxel): 2.923 | Log2FC Sdhb (Nav1.8-TRAP after paclitaxel): 3.236 | Log2FC Sec14I1 (Nav1.8-TRAP after paclitaxel): 2.129 | Log2FC Serp2 (Nav1.8-TRAP after paclitaxel): 2.805 | Log2FC Serpina3n (Nav1.8-TRAP after paclitaxel): 2.549 | Log2FC Serping1 (Nav1.8-TRAP after paclitaxel): 3.002 | Log2FC Shisa5 (Nav1.8-TRAP after paclitaxel): 2.137 | Log2FC Slc3a2 (Nav1.8-TRAP after paclitaxel): 2.841 | Log2FC Slc6a15 (Nav1.8-TRAP after paclitaxel): 1.979 | Log2FC Slc25a3 (Nav1.8-TRAP after paclitaxel): 2.641 | Log2FC Slc30a6 (Nav1.8-TRAP after paclitaxel): 2.809 | Log2FC Slc48a1 (Nav1.8-TRAP after paclitaxel): 1.977 | Log2FC Smdt1 (Nav1.8-TRAP after paclitaxel): 2.016 | Log2FC Smug1 (Nav1.8-TRAP after paclitaxel): 4.754 | Log2FC Snrpg (Nav1.8-TRAP after paclitaxel): 1.657 | Log2FC Soat2 (Nav1.8-TRAP after paclitaxel): 4.066 | Log2FC Sod1 (Nav1.8-TRAP after paclitaxel): 1.77 | Log2FC Sorbs1 (Nav1.8-TRAP after paclitaxel): 2.942 | Log2FC Spink10 (Nav1.8-TRAP after paclitaxel): 3.169 | Log2FC Synb (Nav1.8-TRAP after paclitaxel): 3.1 | Log2FC Syngr3 (Nav1.8-TRAP after paclitaxel): 1.701 | Log2FC Tagln3 (Nav1.8-TRAP after paclitaxel): 2.101 | Log2FC Tdrp (Nav1.8-TRAP after paclitaxel): 2.335 | Log2FC Tgm2 (Nav1.8-TRAP after paclitaxel): 2.739 | Log2FC Thoc7 (Nav1.8-TRAP after paclitaxel): 2.07 | Log2FC Timm8b (Nav1.8-TRAP after paclitaxel): 2.815 | Log2FC Timm9 (Nav1.8-TRAP after paclitaxel): 1.838 | Log2FC Tmem9b (Nav1.8-TRAP after paclitaxel): 1.818 | Log2FC Tmem14c (Nav1.8-TRAP after paclitaxel): 1.657 | Log2FC Tmem53 (Nav1.8-TRAP after paclitaxel): 2.851 | Log2FC Tmem106b (Nav1.8-TRAP after paclitaxel): 1.891 | Log2FC Tmem120b (Nav1.8-TRAP after paclitaxel): 3.033 | Log2FC Tmem126a (Nav1.8-TRAP after paclitaxel): 2.744 | Log2FC Tmem129 (Nav1.8-TRAP after paclitaxel): 2.655 | Log2FC Tnfaip8l3 (Nav1.8-TRAP after paclitaxel): 4.38 | Log2FC Tonsl (Nav1.8-TRAP after paclitaxel): 1.762 | Log2FC Tpgs2 (Nav1.8-TRAP after paclitaxel): 2.076 | Log2FC Tram1 (Nav1.8-TRAP after paclitaxel): 2.174 | Log2FC Trap1 (Nav1.8-TRAP after paclitaxel): 2.447 | Log2FC Trim11 (Nav1.8-TRAP after paclitaxel): 2.395 | Log2FC Trpv1 (Nav1.8-TRAP after paclitaxel): 1.657 | Log2FC Tspan17 (Nav1.8-TRAP after paclitaxel): 2.337 | Log2FC Tubb4b (Nav1.8-TRAP after paclitaxel): 2.111 | Log2FC Tyro3 (Nav1.8-TRAP after paclitaxel): 2.927 | Log2FC Ucp1 (Nav1.8-TRAP after paclitaxel): 3.795 | Log2FC Ufsp2 (Nav1.8-TRAP after paclitaxel): 1.927 | Log2FC Uqcrc2 (Nav1.8-TRAP after paclitaxel): 3.514 | Log2FC Uqcrq (Nav1.8-TRAP after paclitaxel): 1.825 | Log2FC Use1 (Nav1.8-TRAP after paclitaxel): 1.748 | Log2FC Usmg5 (Nav1.8-TRAP after paclitaxel): 1.798 | Log2FC Vezf1 (Nav1.8-TRAP after paclitaxel): 1.933 | Log2FC Wbp2 (Nav1.8-TRAP after paclitaxel): 1.689 | Log2FC Wdr35 (Nav1.8-TRAP after paclitaxel): 2.68 | Log2FC ll15ra (Nav1.8-TRAP after paclitaxel): 3.551 | Log2FC mt-Nd1 (Nav1.8-TRAP after paclitaxel): 1.74 | normalized TPM for the Rraga mRNA (TRAP fraction): 3.6±0.51 | increase in number of normalized reads mapping to the Rraga mRNA (TRAP-seq after paclitaxel treatment): 3.5 fold | number of genes down regulated (TRAP-seq data set): 222 | number of genes up-regulated (TRAP-seq data set): 230 | Log2FC Med6 (gene Med6, upregulated in Nav1.8-TRAP after paclitaxel): 2.473 | Log2FC Mien1 (gene Mien1, upregulated in Nav1.8-TRAP after paclitaxel): 1.847 | Log2FC Mmd (gene Mmd, upregulated in Nav1.8-TRAP after paclitaxel): 2.026 | Log2FC Mob1a (gene Mob1a, upregulated in Nav1.8-TRAP after paclitaxel): 2.683 | Log2FC Mob3b (gene Mob3b, upregulated in Nav1.8-TRAP after paclitaxel): 2.179 | Log2FC Ythdf2 (gene Ythdf2, upregulated in Nav1.8-TRAP after paclitaxel): 1.866 | Log2FC Ywhaq (gene Ywhaq, upregulated in Nav1.8-TRAP after paclitaxel): 1.837 | Log2FC Zfp386 (gene Zfp386, upregulated in Nav1.8-TRAP after paclitaxel): 3.022 | Log2FC Zfp467 (gene Zfp467, upregulated in Nav1.8-TRAP after paclitaxel): 2.147 | Log2FC Zyx (gene Zyx, upregulated in Nav1.8-TRAP after paclitaxel): 2.08 | normalized TPM for the Rraga mRNA (input fraction): 2.04±0.17 | number of genes down-regulated [1]: 1 | number of genes up-regulated [1]: 4 | Log2FC Stx2 (mouse, in vivo): 1.896
